Patent US20260216176A1, “USE OF PCLX-001 OR PCLX-002 AS A RADIOSENSITIZER” (ACYLEX PHARMACEUTICALS INC., priority 2023, published 2026)

Experiments:
[1] = Plasma, brain and CSF pharmacokinetics and brain tissue accumulation in mice (LC-MS/MS); type: in vivo, male C57BL/6 mice; conditions: male, C57BL/6, mouse, oral gavage 5 mg/kg; for Cmax: read-out: C0/Cmax; for half-life: read-out: T½ (converted)
[2] = Plasma pharmacokinetics in phase I clinical trial NCT04836195 (oral daily dose); type: in vivo, human; conditions: for AUC(0-t) / Cmax / Tmax / half-life: human, plasma; for AUC(0-t): read-out: AUC0-24 (mean, SD); for Cmax: read-out: Cmax (mean, SD)
Procedure: A phase I, multicenter, nonrandomized, open-label study of zelenirstat, entitled “Phase I Trial of PCLX-001 in B-cell Non-Hodgkin Lymphoma and Advanced Solid Malignancies” (reference 6), is being conducted and is registered at clinicaltrials.gov as NCT04836195. In this study, PCLX-001 was administered as an oral daily dose every morning to patients with advanced cancer, on 28-day cycles, until toxicity or progressive disease. Peripheral blood samples were collected over six time points in the first 8 hours of cycle 1 day 1, and again on cycle 1 day 15, with pretreatment day 1 levels obtained with every subsequent cycle. PCLX-001/zelenirstat plasma concentrations were quantified using a validated ultra-performance liquid chromatography with tandem mass spectrometry detection and analyzed using a nonlinear mixed-effects model.

[3] = oral, 20 mg, 20 mg, Cycle 1 D15
[4] = oral, 40 mg, 40 mg, Cycle 1 D15
[5] = oral, 70 mg, 70 mg, Cycle 1 D15
[6] = oral, 100 mg, 100 mg, Cycle 1 D1
[7] = oral, 100 mg, 100 mg, Cycle 1 D15
[8] = oral, 140 mg, 140 mg, Cycle 1 D1
[9] = oral, 140 mg, 140 mg, Cycle 1 D15
[10] = oral, 210 mg, 210 mg, Cycle 1 D1
[11] = oral, 210 mg, 210 mg, Cycle 1 D15

Question: Which Tmax ([1]; Brain) does the source give for `Cc1c(N[S+](=O)(O)c2c(Cl)cc(-c3ccnc(N4CCNCC4)c3)cc2Cl)c(CC(C)C)nn1C` [PCLX-001] here?
Answer: 4 h

Question: And the Cmax ([1]; Brain)?
Answer: 176 nM

Question: And the Kp ([1]; Brain, read-out: T/P ratio (Tissue to plasma AUClast ratio))?
Answer: 0.02

Question: And the half-life ([1]; Brain)?
Answer: 4.17 h

Question: What about the AUC(0-t) ([1]; CSF) of the same compound?
Answer: 0.166 µM·h

Question: And the Tmax ([1]; CSF)?
Answer: 4 h

Question: And the Cmax ([1]; CSF)?
Answer: 36.6 nM

Question: What about the AUC(0-t) ([1]; Plasma) of the same compound?
Answer: 108 µM·h

Question: What about the Tmax ([1]; Plasma) of the same compound?
Answer: 4 h

Question: What about the bioavailability ([1]; Plasma) of the same compound?
Answer: 97%

Question: What about the Cmax ([1]; Plasma) of the same compound?
Answer: 10600 nM

Question: What about the half-life ([1]; Plasma) of the same compound?
Answer: 1.77 h

Question: What about the AUC(0-t) ([2]; oral, 20 mg, 20 mg, Cycle 1 D1) of the same compound?
Answer: 1580 ng·h/mL

Question: And the Cmax ([2]; oral, 20 mg, 20 mg, Cycle 1 D1)?
Answer: 276 ng/mL

Question: What about the Tmax ([2]; oral, 20 mg, 20 mg, Cycle 1 D1, read-out: Tmax (median, range)) of the same compound?
Answer: 2 h

Question: What about the half-life ([2]; oral, 20 mg, 20 mg, Cycle 1 D1, read-out: t½ (mean, SD) (converted)) of the same compound?
Answer: 6.7 h

Question: And the AUC(0-t) [2, 3]?
Answer: 2070 ng·h/mL

Question: And the Cmax [2, 3]?
Answer: 359 ng/mL

Question: What about the Tmax ([2]; oral, 20 mg, 20 mg, Cycle 1 D15, read-out: Tmax (median, range)) of the same compound?
Answer: 1 h

Question: What about the half-life ([2]; oral, 20 mg, 20 mg, Cycle 1 D15, read-out: t½ (mean, SD) (converted)) of the same compound?
Answer: 7.4 h

Question: And the AUC(0-t) ([2]; oral, 40 mg, 40 mg, Cycle 1 D1)?
Answer: 4820 ng·h/mL

Question: What about the Cmax ([2]; oral, 40 mg, 40 mg, Cycle 1 D1) of the same compound?
Answer: 848 ng/mL

Question: What about the Tmax ([2]; oral, 40 mg, 40 mg, Cycle 1 D1, read-out: Tmax (median, range)) of the same compound?
Answer: 0.9 h

Question: And the half-life ([2]; oral, 40 mg, 40 mg, Cycle 1 D1, read-out: t½ (mean, SD) (converted))?
Answer: 9.2 h

Question: And the AUC(0-t) [2, 4]?
Answer: 7060 ng·h/mL

Question: What about the Cmax [2, 4] of the same compound?
Answer: 774 ng/mL

Question: What about the Tmax ([2]; oral, 40 mg, 40 mg, Cycle 1 D15, read-out: Tmax (median, range)) of the same compound?
Answer: 2.2 h

Question: And the half-life ([2]; oral, 40 mg, 40 mg, Cycle 1 D15, read-out: t½ (mean, SD) (converted))?
Answer: 9.7 h

Question: What about the AUC(0-t) ([2]; oral, 70 mg, 70 mg, Cycle 1 D1) of the same compound?
Answer: 5650 ng·h/mL

Question: What about the Cmax ([2]; oral, 70 mg, 70 mg, Cycle 1 D1) of the same compound?
Answer: 665 ng/mL

Question: What about the Tmax ([2]; oral, 70 mg, 70 mg, Cycle 1 D1, read-out: Tmax (median, range)) of the same compound?
Answer: 3.9 h

Question: And the half-life ([2]; oral, 70 mg, 70 mg, Cycle 1 D1, read-out: t½ (mean, SD) (converted))?
Answer: 9.5 h

Question: And the AUC(0-t) [2, 5]?
Answer: 6610 ng·h/mL

Question: And the Cmax [2, 5]?
Answer: 467 ng/mL

Question: And the Tmax ([2]; oral, 70 mg, 70 mg, Cycle 1 D15, read-out: Tmax (median, range))?
Answer: 4.1 h

Question: And the AUC(0-t) [2, 6]?
Answer: 18900 ng·h/mL

Question: And the Cmax [2, 6]?
Answer: 2190 ng/mL

Question: What about the Tmax ([2]; oral, 100 mg, 100 mg, Cycle 1 D1, read-out: Tmax (median, range)) of the same compound?
Answer: 2 h

Question: What about the half-life ([2]; oral, 100 mg, 100 mg, Cycle 1 D1, read-out: t½ (mean, SD) (converted)) of the same compound?
Answer: 8 h

Question: And the AUC(0-t) [2, 7]?
Answer: 24700 ng·h/mL

Question: And the Cmax [2, 7]?
Answer: 2300 ng/mL

Question: What about the Tmax ([2]; oral, 100 mg, 100 mg, Cycle 1 D15, read-out: Tmax (median, range)) of the same compound?
Answer: 4 h

Question: And the half-life ([2]; oral, 100 mg, 100 mg, Cycle 1 D15, read-out: t½ (mean, SD) (converted))?
Answer: 12 h

Question: And the AUC(0-t) [2, 8]?
Answer: 11900 ng·h/mL

Question: What about the Cmax [2, 8] of the same compound?
Answer: 1770 ng/mL

Question: What about the Tmax ([2]; oral, 140 mg, 140 mg, Cycle 1 D1, read-out: Tmax (median, range)) of the same compound?
Answer: 1 h

Question: What about the half-life ([2]; oral, 140 mg, 140 mg, Cycle 1 D1, read-out: t½ (mean, SD) (converted)) of the same compound?
Answer: 7.2 h

Question: And the AUC(0-t) [2, 9]?
Answer: 8150 ng·h/mL

Question: What about the Cmax [2, 9] of the same compound?
Answer: 1340 ng/mL

Question: And the Tmax ([2]; oral, 140 mg, 140 mg, Cycle 1 D15, read-out: Tmax (median, range))?
Answer: 2 h

Question: What about the half-life ([2]; oral, 140 mg, 140 mg, Cycle 1 D15, read-out: t½ (mean, SD) (converted)) of the same compound?
Answer: 10.4 h

Question: And the AUC(0-t) [2, 10]?
Answer: 14700 ng·h/mL

Question: What about the Cmax [2, 10] of the same compound?
Answer: 1770 ng/mL

Question: What about the Tmax ([2]; oral, 210 mg, 210 mg, Cycle 1 D1, read-out: Tmax (median, range)) of the same compound?
Answer: 3 h

Question: And the half-life ([2]; oral, 210 mg, 210 mg, Cycle 1 D1, read-out: t½ (mean, SD) (converted))?
Answer: 7.8 h

Question: And the AUC(0-t) [2, 11]?
Answer: 27600 ng·h/mL

Question: And the Cmax [2, 11]?
Answer: 2940 ng/mL

Question: And the Tmax ([2]; oral, 210 mg, 210 mg, Cycle 1 D15, read-out: Tmax (median, range))?
Answer: 2 h

Question: And the half-life ([2]; oral, 210 mg, 210 mg, Cycle 1 D15, read-out: t½ (mean, SD) (converted))?
Answer: 7.7 h

Question: What about the Tmax ([2]; oral, patients taking proton pump inhibitors (PPI), read-out: maximum Tmax value observed) of the same compound?
Answer: ~8 h

Question: What about the Tmax ([2]; oral, patients taking proton pump inhibitors (PPI), read-out: median Tmax range) of the same compound?
Answer: 1 to 6 h

Question: What about the half-life ([2]; oral, C1D1, read-out: mean terminal half-life across the dose cohorts) of the same compound?
Answer: 6.7 to 9.5 h

Question: And the Tmax ([2]; po, single oral 20 mg to 210 mg, C1D1, read-out: median Tmax values across the dose cohorts)?
Answer: 1 to 4 h

Question: And the “accumulation following repeated administration” value ([2]; majority of patients, 14 days)?
Answer: < 2 fold

Question: And the “accumulation beyond Day 15” value ([2]; pre-dose concentrations over multiple cycles)?
Answer: no accumulation was apparent
